This is an account of results in patent publication US20250090596A1, “MODULATING INFLAMMATION ASSOCIATED WITH FOREIGN BODY RESPONSE” (CRISPR Therapeutics AG, priority 2023, published 2025).

“And” between values parts separate entries of the source, which are not always exact repeats. Identical values can stand only once.

Data set [1] is classed as in vivo, Rat (Rattus norvegicus).
Description: Prior to implant, 30 male athymic nude rats (described in Table 19) were randomly assigned to three groups of ten animals each, and unbiased weight distribution was confirmed. […] At implant, each animal was surgically implanted subcutaneously with two VCTX test articles. The animals then continued to receive their respective chow. Group 1 and 3 animals received their respective chow for 12 weeks, while Group 2 animals only tolerated the tacrolimus-containing chow for 3 weeks. […] At 12 weeks, all animals were switched to standard rodent chow (Teklad 2920X, Envigo).
Data set [2] has as its system athymic rats. Put plainly: Previous in vivo sensitivity studies of a similar combination product with unmodified cells. To be noted: unmodified-cell combination product, drug in chow.
Description: (§1) The administration of the calcineurin inhibitors was achieved through formulation into the chow fed to the animals (athymic rats).
The subject of a further data set is VCTX211 implants. Put plainly: GSIS test of VCTX211 implants under calcineurin inhibitor chow.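 Also: athymic nude rats each carrying two subcutaneous VCTX211-loaded perforated delivery devices, fed calcineurin inhibitor or control chow.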 Format: in vivo, Rat (Rattus norvegicus).
For a further data set, the system named is PEC-211 cells. Description: In vitro differentiation of PEC-211 to stage 6 in presence of Tacrolimus, flow cytometry. Format: cell-based, human. The following applies: 0.1 μM, 10 days. The procedure: Evaluation of the PEC-211 cells in the presence of Tacrolimus was performed in vitro. Stage 4 Pancreatic progenitor PEC-211 cells were further differentiated to stage 6 to produce matured islet like cell population in presence of 0.1 μM of Tacrolimus for 10 days. Control PEC-211 cells were not treated with Tacrolimus.
(A flow cytometer gives signals particle by particle.)

Data set [3] concerns athymic rats. To be noted: rat, in vivo.
Description: as §1
The mark [4] stands for this setting: individual animals, serum, 90 min after glucose.
Setting [5] is: individual animals, serum, fasted.

Description for VCTX211 implants: Provided in this Example are in vivo efficacy evaluations of VCTX211 combination products (e.g., genetically modified cells loaded into a perforated delivery device) to assess potential sensitivity of exposure to calcineurin inhibitors. In this study, athymic nude rats each received two implants of compositions comprising genetically modified cells disclosed herein (e.g., VCTX211) each.
VCTX211 test articles (e.g., perforated delivery devices loaded with genetically modified cells disclosed herein) were first generated with pancreatic endoderm cell (PEC-211; e.g., comprising B2M KO and KI of TNFAIP3 and PD-L1; and KO of TXNIP and KI of MANF and HLA-E) aggregates derived from VCTX211 stem cell progenitor cells. To do so, the thaw and culture of PEC-211 aggregates was first performed in roller bottles. On the third day post-thaw, 20 μL aliquots of settled pellet volume (approximately 9×10^6 cells) were prepared and loaded into sterilized PD20 devices (e.g., perforated cell delivery device) to produce VCTX test articles. […] After formulation, test articles were maintained at room temperature in 10 mL storage tubes with media for 2 days.
Prior to implant, 30 male athymic nude rats (described in Table 19) were randomly assigned to three groups of ten animals each, and unbiased weight distribution was confirmed. […] At implant, each animal was surgically implanted subcutaneously with two VCTX test articles. The animals then continued to receive their respective chow. […] At 12 weeks, all animals were switched to standard rodent chow (Teklad 2920X, Envigo).

Consider `C=CC[C@@H]1/C=C(\C)C[C@H](C)C[C@H](OC)[C@H]2O[C@@](O)(C(=O)C(=O)N3CCCC[C@H]3C(=O)O[C@H](/C(C)=C/[C@@H]3CC[C@@H](O)[C@H](OC)C3)[C@H](C)[C@@H](O)CC1=O)[C@H](C)C[C@@H]2OC` [TAC, tacrolimus], for which the “animals died or euthanized in extremis” value in data set [1] (by 3 weeks, group of 10) turned out to be 3 animals. The “average loss of body weight” value in data set [1] (rat, in vivo) was found to be 8%. Besides, in the data set on athymic rats [2], the “effect on development or function of beta cells derived from the implants” value is reported as “did not appear to affect”. For the same compound, in the data set with VCTX211 implants (cyclosporine A 12 weeks, tacrolimus 3 weeks), the “functional development of VCTX211 grafts, evaluated with GSIS tests, compared to control animals” value is given as “not affected”. In addition, the “C-peptide, 16 Weeks, 60 min” value in the data set on VCTX211 implants (individual animals, serum, 60 min after glucose) is 1131 pM and 1798 pM and 720 pM and 1365 pM and 3073 pM and 700 pM. Moreover, in the data set with VCTX211 implants (setting [4]), the “C-peptide, 12 Weeks, 90 min” value is 1933 pM and 1504 pM and 627 pM and 428 pM and 1178 pM and 1271 pM; the “C-peptide, 16 Weeks, 90 min” value is 1312 pM and 1545 pM and 1271 pM and 1207 pM and 1782 pM and 1140 pM. For the same compound, in the data set on VCTX211 implants (setting [5]), the “C-peptide, 12 Weeks, Fast” value was 113 pM and 123 pM and 119 pM and 107 pM and 147 pM and 109 pM; the “C-peptide, 16 Weeks, Fast” value was 282 pM and 253 pM and 273 pM and 227 pM and 302 pM and 219 pM. Moreover, the “effect on in vitro differentiation to islet cells” value in the data set with PEC-211 cells was “did not affect”. Besides, in the data set with PEC-211 cells (Stage 6 cells, flow cytometry), the “CHGA-NKX6.1+ PDX1+ or- (Pancreatic Progenitor)” value is given as 16.9, the “Total CHGA+” value is given as 76.3, the “Total GCG+” value is listed as 36.6 and the “Total INS+” value came out at 70.4. Moreover, the “Total NKX6.1+” value with PEC-211 cells (Stage 6 cells, flow cytometry) is 48.7. Moreover, in the data set on athymic rats [3], the “dose-limiting finding preventing increased exposure” value was “toxicity resulting in inappetence and severe weight loss”; the “exposure levels versus target levels for prophylactic use in clinical organ transplantation” value was “below target levels”.
